Assay results from PubChem BioAssay AID2060509 (Molecular Pharmacology Branch, DTP, NCI, 2025).
pIC50: −log10 of the molar value.

Tested on: 485176-168-R4-J1-PDC spheroids with HUVEC/MSC, viability
Assay: Anticancer human tumor 485176-168-R4-J1-PDC patient-derived pancreatic adenocarcinoma cell line growth inhibition [GQUAD]
Details: for pIC50: curve of first compound; for viability, T/C: stronger effect = lower value
Procedure, shortened: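 Tumor cells were grown as complex spheroids with HUVEC endothelial cells and mesenchymal stem cells as stroma. G-quadruplex stabilizers were combined with targeted agents over half-log dilutions from near the clinical Cmax, or from 10 microM.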

[1] = second compound 0.0316 µM, first compound 0.0316 µM
[2] = second compound 0.0316 µM, first compound 0.316 µM
[3] = second compound 0.1 µM, first compound 0.0316 µM
[4] = second compound 0.1 µM, first compound 0.316 µM
[5] = second compound 0.316 µM, first compound 0.0316 µM
[6] = second compound 0.316 µM, first compound 0.316 µM
[7] = second compound 1 µM, first compound 0.0316 µM
[8] = second compound 1 µM, first compound 0.316 µM
[9] = second compound 3.16 µM, first compound 0.0316 µM
[10] = second compound 3.16 µM, first compound 0.316 µM
[11] = second compound 10 µM, first compound 0.0316 µM
[12] = second compound 10 µM, first compound 0.316 µM
[13] = second compound 0.0316 µM, first compound 0.1 µM
[14] = second compound 0.0316 µM, first compound 1 µM
[15] = second compound 0.0316 µM, first compound 3.16 µM
[16] = second compound 0.0316 µM, first compound 10 µM
[17] = second compound 0.1 µM, first compound 0.1 µM
[18] = second compound 0.1 µM, first compound 1 µM
[19] = second compound 0.1 µM, first compound 3.16 µM
[20] = second compound 0.1 µM, first compound 10 µM
[21] = second compound 0.316 µM, first compound 0.1 µM
[22] = second compound 0.316 µM, first compound 1 µM
[23] = second compound 0.316 µM, first compound 3.16 µM
[24] = second compound 0.316 µM, first compound 10 µM
[25] = second compound 1 µM, first compound 0.1 µM
[26] = second compound 1 µM, first compound 1 µM
[27] = second compound 1 µM, first compound 3.16 µM
[28] = second compound 1 µM, first compound 10 µM
[29] = second compound 3.16 µM, first compound 0.1 µM
[30] = second compound 3.16 µM, first compound 1 µM
[31] = second compound 3.16 µM, first compound 3.16 µM
[32] = second compound 3.16 µM, first compound 10 µM
[33] = second compound 10 µM, first compound 0.1 µM
[34] = second compound 10 µM, first compound 1 µM
[35] = second compound 10 µM, first compound 3.16 µM
[36] = second compound 10 µM, first compound 10 µM
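Also: spheroids exposed to compounds for seven days before readout.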
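For viability, T/C in this document: percent viability relative to DMSO vehicle control wells as 100%.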

CC[C@@]1(O)C(=O)OCc2c1cc1n(c2=O)Cc2cc3c(CN(C)C)c(O)ccc3nc2-1 + CN(C)c1ccc(Nc2c3ccc(NC(=O)CCN4CCCC4)cc3nc3cc(NC(=O)CCN4CCCC4)ccc23)cc1
pIC50 (second compound 0.0316 µM): 6.74 | pIC50 (second compound 0.1 µM): 6.73 | pIC50 (second compound 0.316 µM): 6.77 | pIC50 (second compound 1 µM): 6.72 | pIC50 (second compound 3.16 µM): 6.89 | pIC50 (second compound 10 µM): 6.63 | viability, T/C (second compound 0.0316 µM, first compound 0.000999 µM): 97.9% | viability, T/C (second compound 0.0316 µM, first compound 0.00316 µM): 88.1% | viability, T/C (second compound 0.0316 µM, first compound 0.00999 µM): 83.8% | viability, T/C [1]: 90.6% | viability, T/C (second compound 0.0316 µM, first compound 0.0999 µM): 65% | viability, T/C [2]: 35.6% | viability, T/C (second compound 0.1 µM, first compound 0.000999 µM): 94.8% | viability, T/C (second compound 0.1 µM, first compound 0.00316 µM): 106% | viability, T/C (second compound 0.1 µM, first compound 0.00999 µM): 95.9% | viability, T/C [3]: 81% | viability, T/C (second compound 0.1 µM, first compound 0.0999 µM): 64.5% | viability, T/C [4]: 38.4% | viability, T/C (second compound 0.316 µM, first compound 0.000999 µM): 97.3% | viability, T/C (second compound 0.316 µM, first compound 0.00316 µM): 117% | viability, T/C (second compound 0.316 µM, first compound 0.00999 µM): 107% | viability, T/C [5]: 99.1% | viability, T/C (second compound 0.316 µM, first compound 0.0999 µM): 55.7% | viability, T/C [6]: 43.1% | viability, T/C (second compound 1 µM, first compound 0.000999 µM): 89.1% | viability, T/C (second compound 1 µM, first compound 0.00316 µM): 97.7% | viability, T/C (second compound 1 µM, first compound 0.00999 µM): 99.1% | viability, T/C [7]: 81.1% | viability, T/C (second compound 1 µM, first compound 0.0999 µM): 69.5% | viability, T/C [8]: 35.8% | viability, T/C (second compound 3.16 µM, first compound 0.000999 µM): 104% | viability, T/C (second compound 3.16 µM, first compound 0.00316 µM): 99.7% | viability, T/C (second compound 3.16 µM, first compound 0.00999 µM): 87.2% | viability, T/C [9]: 76.6% | viability, T/C (second compound 3.16 µM, first compound 0.0999 µM): 52.6% | viability, T/C [10]: 35.5% | viability, T/C (second compound 10 µM, first compound 0.000999 µM): 108% | viability, T/C (second compound 10 µM, first compound 0.00316 µM): 98.6% | viability, T/C (second compound 10 µM, first compound 0.00999 µM): 88.3% | viability, T/C [11]: 94.6% | viability, T/C (second compound 10 µM, first compound 0.0999 µM): 63.5% | viability, T/C [12]: 44%

C#Cc1c(F)ccc2cc(O)cc(-c3ncc4c(N5CC6CCC(C5)N6)nc(OCC56CCCN5CC(F)C6)nc4c3F)c12 (stereo unspecified) + Cc1[nH]c2ccc(F)cc2c1-c1nc2c3cccnc3c3ncccc3c2[nH]1
pIC50 (second compound 0.0316 µM): < 5.00 | pIC50 (second compound 0.1 µM): < 5.00 | pIC50 (second compound 0.316 µM): < 5.00 | pIC50 (second compound 1 µM): < 5.00 | pIC50 (second compound 3.16 µM): < 5.00 | pIC50 (second compound 10 µM): < 5.00 | viability, T/C [1]: 92.5% | viability, T/C [13]: 95.7% | viability, T/C [2]: 91.5% | viability, T/C [14]: 84.1% | viability, T/C [15]: 90.3% | viability, T/C [16]: 89.7% | viability, T/C [3]: 93% | viability, T/C [17]: 102% | viability, T/C [4]: 101% | viability, T/C [18]: 109% | viability, T/C [19]: 103% | viability, T/C [20]: 93.6% | viability, T/C [5]: 91% | viability, T/C [21]: 101% | viability, T/C [6]: 93.4% | viability, T/C [22]: 107% | viability, T/C [23]: 99.1% | viability, T/C [24]: 87% | viability, T/C [7]: 105% | viability, T/C [25]: 89.2% | viability, T/C [8]: 92.4% | viability, T/C [26]: 81.5% | viability, T/C [27]: 109% | viability, T/C [28]: 93% | viability, T/C [9]: 98.9% | viability, T/C [29]: 80.9% | viability, T/C [10]: 105% | viability, T/C [30]: 97.6% | viability, T/C [31]: 90.4% | viability, T/C [32]: 95.3% | viability, T/C [11]: 96.6% | viability, T/C [33]: 92% | viability, T/C [12]: 82.7% | viability, T/C [34]: 87.8% | viability, T/C [35]: 85.1% | viability, T/C [36]: 86.5%

CC(C)(O)C1CCC(Nc2ccc3ncc(-c4cccc(C(F)(F)F)c4)n3n2)CC1 (stereo unspecified) + CN(C)c1ccc(Nc2c3ccc(NC(=O)CCN4CCCC4)cc3nc3cc(NC(=O)CCN4CCCC4)ccc23)cc1
pIC50 (second compound 0.0316 µM): < 5.00 | pIC50 (second compound 0.1 µM): < 5.00 | pIC50 (second compound 0.316 µM): < 5.00 | pIC50 (second compound 1 µM): 5.20 | pIC50 (second compound 3.16 µM): 5.56 | pIC50 (second compound 10 µM): 5.82 | viability, T/C [1]: 101% | viability, T/C [13]: 104% | viability, T/C [2]: 86.1% | viability, T/C [14]: 78.8% | viability, T/C [15]: 56.7% | viability, T/C [16]: 51.1% | viability, T/C [3]: 83.8% | viability, T/C [17]: 89.5% | viability, T/C [4]: 88.7% | viability, T/C [18]: 77.7% | viability, T/C [19]: 64.5% | viability, T/C [20]: 51% | viability, T/C [5]: 104% | viability, T/C [21]: 84.6% | viability, T/C [6]: 100% | viability, T/C [22]: 97.9% | viability, T/C [23]: 56.2% | viability, T/C [24]: 59.1% | viability, T/C [7]: 111% | viability, T/C [25]: 104% | viability, T/C [8]: 82.2% | viability, T/C [26]: 91.4% | viability, T/C [27]: 56.6% | viability, T/C [28]: 42.1% | viability, T/C [9]: 88.1% | viability, T/C [29]: 81.1% | viability, T/C [10]: 92.1% | viability, T/C [30]: 97.7% | viability, T/C [31]: 44.4% | viability, T/C [32]: 37.3% | viability, T/C [11]: 89% | viability, T/C [33]: 85.7% | viability, T/C [12]: 72.6% | viability, T/C [34]: 65.9% | viability, T/C [35]: 25.4% | viability, T/C [36]: 16.4%
